{"source": "patent US20110044991A1", "about": "“METHODS AND COMPOSITIONS FOR TREATING LYMPHOMA AND MYELOMA” (IRM LLC, priority 2006, published 2011)", "key": {"Eμ-Myc lymphoma cells": {"system": "Eμ-Myc lymphoma cells", "assay": "Shh-induced proliferation of lymphoma cells without stromal layer, Alamar Blue assay", "assay_type": "cell-based, mouse", "conditions": "Shh 10 μM over 48 h; 5E1 10 μg/ml, cyclopamine 5 μM", "method": "Luminescence was measured after 0 h, 24 h and 48 h after seeding of 2×10E4 luciferased lymphoma cells on the stroma cells; and F: RT-PCR analysis of transcripts from Hh pathway members and targets in spleen lymphocytes and different lymphoma cell lines.\nCell culture experiments: Lymphoma cells were infected with a retrovirus containing a pMSCV IRES puro-luc sequence and selected for 7 days with puromycin on puromycin-resistant Cdkn2a−/− stroma. […] Both were dissolved as x 1,000 stocks in DMSO. SCF was obtained from RDI, and all other cytokines were obtained from R&D systems. 5E1 anti-ShhN monoclonal antibody was obtained from the developmental hybridoma bank and was used at a concentration of 10 μg/ml. For cytokine stimulation and Shh inhibition in supernatant lymphoma cells were seeded into 96-well plates at a density of 20,000 cells per well and mitochondrial activity of viable cells was measured with an Alamar Blue Assay as described."}, "Cdkn2a−/− lymphoma cells": {"system": "Cdkn2a−/− lymphoma cells", "assay": "Luciferase assay of luciferased lymphoma cells on stromal layer", "assay_type": "cell-based, mouse", "conditions": "for Response rate to cyclopamine treatment (responsive/tested cultures) / Response rate to cyclopamine treatment: Ink4a/Arf-/- lymphomas; for Response rate to cyclopamine treatment: >80% growth inhibition at 5 μM", "method": "(§1) For Shh pathway inhibition on stroma, 6200 stroma cells were seeded per 96-well. After 24 hours 20,000 luciferased lymphoma cells were seeded on the stroma cells and 2 hours later compound or DMSO was added. Luciferase assay was performed with Bright-glow reagent as described. To generate cells overexpressing Hh pathway members, lymphoma cells were infected with Smo, Smo 535, Smo 562, Gli1 and Fused-pMSCV IRES GFP constructs and then sorted for GFP positive cells.\nIn order to investigate whether the Hh signalling pathway does indeed contribute to the survival and proliferation of lymphoma cells growing on an intact stromal layer, lymphoma cells were luciferased using a retrovirus expressing a puromycin/Luc fusion cassette. 2×10E4 lymphoma cells constitutively expressing luciferase were added to each 96-well containing a stromal layer (not expressing luciferase) isolated from Cdkn2a^−/− mice. A total of 34 individual Eμ-Myc-lymphomas and 8 Cdkn2a-lymphomas were tested. A luciferase assay was performed as a readout for cell viability and proliferation and results were also documented by light microscopy."}, "lymphoma cells [1]": {"system": "lymphoma cells", "assay": "Annexin V staining, flow cytometry", "assay_type": "cell-based, mouse", "conditions": "5 μM"}, "lymphoma cells [2]": {"system": "lymphoma cells", "assay": "Cell cycle distribution of gated viable cells", "assay_type": "cell-based, mouse", "conditions": "after 12 hours of treatment; 20.4% before"}, "Gli1, Ptch1, Bcl2": {"system": "Gli1, Ptch1, Bcl2", "assay": "Hh target expression in lymphoma cells (Western blot, quantitative RT-PCR)", "assay_type": "cell-based, mouse", "method": "Western immunoblot: Whole-cell lysates were sonicated in 2% SDS/50 mM TrisHCl, pH8. Western blot using rabbit or goat polyclonal antibodies for Shh-N, c-Myc, Smo, Gli1 were performed as described. Shh-N, c-Myc and Smo antibodies were obtained from Santa Cruz Biotechnology, Gli1 (ab7523) antibody was obtained from Abcam Inc. (Cambridge, Mass.).\nRT-PCR: Total cellular RNA was treated with DNase, reverse transcribed, amplified for 33 cycles at an annealing temperature of 55° C. Primers used were obtained from Integrated DNA Technologies (Coralville, Iowa).\nTo further substantiate a role for Hh/SMO signalling in Eμ-Myc and CDKN2a^−/− positive lymphoma we determined the expression of Hh pathway members in the lymphoma cells itself. Transcripts of all essential Hh pathway members (Smo, Ptc1, Ptc2, Gli1, and Gli2) were expressed in B-cell lymphomas, plasmoblastomas and plasmacytomas (FIG. 2E). Gli1 and Ptch represent direct target genes of the Hh pathway itself and are regulated at the transcriptional level by Hh signalling. […] Ptch1 transcript levels were decreased 10-fold within 18 h of pathway inhibition (FIG. 2G). Other target genes of the Hh pathway like Hip and Cyclin D1 could also be detected in the majority of lymphoma cells. […] All 3 Gli proteins have evolved specialized functions with distinct temporal and tissue-specific expression patterns. Unlike Gli1, which represents a direct transcriptional Hh-target gene, Gli2 and also Gli3 are considered latent transcriptional regulators activated by Hh signalling through modification of their N-terminal repressor domain."}, "[3]": {"system": "Myc-Ly6 cells overexpressing Smo, Smo535, Smo562, Gli1 or Fused", "assay": "Luciferase assay with lymphoma cells overexpressing Hh pathway members on stromal layer", "assay_type": "cell-based, mouse", "conditions": "for IC50: Mus musculus, 48 h", "method": "as §1"}, "[4]": {"system": "Myc lymphoma cells (p53−/−, Cdkn2a−/−, Bcl2+, Bax−/−, Caspase3−/−)", "conditions": "for apoptosis: 5 μM, 48 hours", "source_text": "Genetically altered mice and culture of primary cells: Eμ-Myc mice (Adams et al., Nature 318: 533-53824, 1985), Cdkna^−/− mice (Serrano et al., Cell. 85:27-3725, 1996), Bax^−/− mice (The Jackson Laboratory, Bar Harbor, Me.), Caspase3^−/− mice (The Jackson laboratory), p53^−/− mice (The Jackson Laboratory) and Bcl2 tg mice (The Jackson laboratory) were maintained and genotyped as described. Eμ-Myc mice and Cdkn2a−/− mice were monitored for signs of disease including development of visible lymphomas or weight loss from more than 15%. Mice with terminal disease were sacrificed, bone marrow, spleen and lymph nodes were extracted and lymphoma cells were propagated under Witlock/Witte culture conditions. For maintained growth cells were transferred on bone marrow stroma from Cdkn2a−/− mice after 2-3 weeks of culture. For generation of lymphomas with defined genetic background, bone marrow from p53−/− mice, Caspase3−/− mice, Bax−/− mice, Cdkn2a−/− mice and Bcl2 tg mice was extracted and pMSCV c-Myc IRES GFP was overexpressed. Propagation of transformed lymphocytes was performed under Witlick/Witte culture conditions and lymphomas were maintained on stroma from Cdkn2a−/− mice.\nTo better understand which specific pathways are involved in the regulation of growth and survival through Hh signalling in lymphoma cells, lymphoma cell cultures were generated in multiple different genetic backgrounds in order to modify either apoptotic or failsafe pathways. Bone marrow extracted from wt C57BL/6, Bcl2 transgenic, Bax^−/− Caspase-3^−/−, CDKN2a^−/− and p53^−/− mice was infected with pMSCV-Myc-GFP and transformed lymphocyte cultures were obtained using Whitlock/Witte culture conditions in the absence of IL-7. […] Similar to cultures established from primary lymphomas, lymphocytes transformed by retroviral transduction were transferred to bone marrow stroma of CDKN2a^−/− mice for longer term culture."}}, "note": "Where two headings read alike, the source gives them in different places.", "data": [{"smiles": "CC1=C2C[C@H]3[C@@H](CC=C4C[C@@H](O)CC[C@@]43C)[C@@H]2CC[C@]12O[C@@H]1C[C@H](C)CN[C@H]1[C@H]2C", "note": "[cyclopamine]", "values": [{"measurement": "inhibition of Shh-induced proliferation", "setting": "Eμ-Myc lymphoma cells", "result": "inhibited"}, {"measurement": "Response rate to cyclopamine treatment (responsive/tested cultures)", "setting": "Cdkn2a−/− lymphoma cells; plasmacytoma", "result": "(2/4)"}, {"measurement": "Response rate to cyclopamine treatment", "setting": "Cdkn2a−/− lymphoma cells; plasmacytoma", "result": 50, "unit": "%"}, {"measurement": "Response rate to cyclopamine treatment (responsive/tested cultures)", "setting": "Cdkn2a−/− lymphoma cells; plasmoblastoma", "result": "(2/4)"}, {"measurement": "Response rate to cyclopamine treatment", "setting": "Cdkn2a−/− lymphoma cells; plasmoblastoma", "result": 50, "unit": "%"}, {"measurement": "lymphomas sensitive to Hh pathway inhibition", "setting": "Cdkn2a−/− lymphoma cells; all lymphomas from CDKN2a−/− mice, sensitivity = greater than 80% growth inhibition at 5 μM", "result": 50, "unit": "%"}, {"measurement": "apoptotic cells (annexin V)", "setting": "lymphoma cells [1]; after 48 hours", "result": "~100", "unit": "%"}, {"measurement": "apoptotic cells (annexin V)", "setting": "lymphoma cells [1]; within 12 hours", "result": "more than 50%"}, {"measurement": "G2/M phase of remaining viable cells", "setting": "lymphoma cells [2]", "result": 13.3, "unit": "%"}, {"measurement": "Bcl2 in Myc-lymphomas", "setting": "Gli1, Ptch1, Bcl2; after cyclopamine treatment, Western blot", "result": "downregulated"}, {"measurement": "decrease of Ptch1 transcript levels", "setting": "Gli1, Ptch1, Bcl2; within 18 h of pathway inhibition, 5 μM", "result": 10, "unit": "fold"}, {"measurement": "Gli1 protein in lymphoma cells", "setting": "Gli1, Ptch1, Bcl2; within 24 hours, compared to actin control", "result": "reduction of detectable Gli1 protein"}, {"measurement": "IC50", "setting": "[3]; cyclopamine sensitive lymphoma cell lines without overexpression", "result": 1, "unit": "µM"}, {"measurement": "IC50", "setting": "[3]; overexpression of Fused", "result": "> 10", "unit": "µM"}, {"measurement": "IC50", "setting": "[3]; overexpression of Gli1", "result": "> 10", "unit": "µM"}, {"measurement": "IC50", "setting": "[3]; overexpression of Smo A562G", "result": 4.5, "unit": "µM"}, {"measurement": "IC50", "setting": "[3]; overexpression of Smo W535L", "result": 3.5, "unit": "µM"}, {"measurement": "IC50", "setting": "[3]; overexpression of Smo wt", "result": 3, "unit": "µM"}, {"measurement": "apoptosis induction by cyclopamine", "setting": "[3]; overexpression of Fused", "result": "nearly complete inhibition of apoptosis induction"}, {"measurement": "response of Myc-Ly6 to cyclopamine treatment", "setting": "[3]; overexpression of Gli1", "result": "partial resistance"}, {"measurement": "cyclopamine induced apoptosis", "setting": "[4]; Myc/Bax−/− cells", "result": "partial resistance"}, {"measurement": "cyclopamine induced apoptosis", "setting": "[4]; Myc/Caspase 3−/− cells", "result": "partial resistance"}, {"measurement": "apoptosis", "setting": "[4]; Myc/Cdkn2a−/− lymphoma cells", "result": "induced apoptosis"}, {"measurement": "apoptosis", "setting": "[4]; Myc/p53−/− lymphoma cells", "result": "induced apoptosis"}]}]}
